# Laboratory results: publication PMC6335420, “The cell cycle regulator GpsB functions as cytosolic adaptor for multiple cell wall enzymes” (Nature Communications, 2019)
# Non-standard residues stand in square brackets, D forms with d. Residues, ends and D or L forms follow the SMILES beside them. No end group written: not given here. *: point of attachment. Fluorescein(5-Mal) = O=C1OC2(c3ccc(O)cc3Oc3cc(O)ccc32)c2ccc(N3C(=O)CC(*)C3=O)cc21; 5FAM = O=C1OC2(c3ccc(O)cc3Oc3cc(O)ccc32)c2ccc(C(=O)*)cc21; Nle = CCCC[C@H](N)C(=O)O
# Assays:
# [1] = target: Fluorescein-LmPBPA11-20 wildtype (L. monocytogenes EGD-e); assay: fluorescence polarisation
# BsGpsB1-68Lys32Glu = target: T1, BsGpsB1-68Lys32Glu (Bacillus subtilis, UniProt P0CI74, K32E); assay: Fluorescence polarisation binding to BsGpsB1-68Lys32Glu; conditions: FP, relative to wild-type LmPBPA1 peptide
# T1 construct: His6 (N, cleaved yes); made in house; host or cells: E. coli BL21(DE3)
# Description: (§1) 75 the BsGpsB5-64:BsPBP11-17 complex.
# LmGpsB = assay: BACTH (bacterial two-hybrid) interaction with LmGpsB; type: cell-based, Listeria monocytogenes; conditions: E. coli BTH101, 30 °C, photographed after 24 and 48 h; LmPBPA1 variants as T25-PBPA1ΔGT-TP
# Description: The BACTH system[63] was used for analysis of protein:protein interactions. First, LmGpsB was screened against LmPBPA1 (lmo1892) variants to identify residues in LmPBPA1 that are important for binding LmGpsB. To facilitate screening, we used a T25 fragment of Bordetella pertussis adenylate cyclase that had been fused to the N-terminal 91 amino acids of LmPBPA1 to create a T25-LmPBPA1 fusion containing the N-terminal cytoplasmic mini-domain and the transmembrane helix, but lacking lacking the extracellular glycosyltransferase and transpeptidase domains (T25-PBPA1ΔGT-TP) in plasmid pSH437[21]. LmPBPA1 residues that corresponded to the BsGpsB binding motif of BsPBP1 (Thr7, Arg8, Tyr11, Arg12) and additional positively charged amino acids (Lys14, Lys20, Lys21, Lys22, Lys25, Arg26, Lys28 and Arg29) in T25-PBP A1ΔGT-TP were replaced with alanine prior to screening against GpsB-T18. The pSH437 plasmid was mutated by Quikchange mutagenesis using the primer pairs SHW744/SHW754 (T7A, pSH485), SHW746/SHW747 (R8A, pSH486), SHW755/SHW756 (Y11A, pSH487), SHW748/SHW749 (R12A, pSH488), SHW757/SHW758 (K14A, pSH489), SHW759/SHW760 (K20A, pSH490), SHW761/SHW762 (K21A, pSH491), SHW763/SHW764 (K22A, pSH492), SHW765/SHW766 (K25A, pSH493), SHW767/SHW768 (R26A, pSH494), SHW769/SHW770 (K28A, pSH495) and SHW771/SHW772 (R29A, pSH496).
# pJR164 and pJR169 were constructed by cloning sepF (primers JR334/JR335 and XbaI/KpnI digestion) into pKT25 and p25-N, respectively. pJR165 and pJR170 were generated by cloning ezrA into pKT25 and p25-N, respectively, using primers JR339/JR340 and XbaI/KpnI for digestion. pJR172 and pJR174 were obtained by cloning zapA into pKT25 and p25-N, respectively, using primers JR337/JR338 and PstI/KpnI. pJR213 was constructed by amplification of divIB with primers JR353/JR354 and cloning into pKT25 using XbaI/KpnI. pJR214 was generated by PCR amplification of divIC with primers JR355/JR356 and cloning into pKT25 using XbaI/KpnI. mreBH was amplified by PCR using oligonucleotides JR368/JR369 and cloned into pKT25 and p25-N using XbaI/KpnI, resulting in pJR233 and pJR236, respectively. pJR242 and pJR243 were obtained by cloning mreC into pKT25 and p25-N, respectively, using primers JR364/JR365 and PstI/KpnI digestion. pbpA2 was cloned into pKT25 using oligonucleotides SHW153/SHW154 and XbaI/KpnI to create pJR250. pbpB1 was amplified with primers SHW157/SHW158 and cloned with SmaI/EcoRI into pKT25, yielding pSH236. pbpB2 was amplified with primers SHW155/SHW156 and cloned into pKT25 after PstI/BamHI digestion, yielding plasmid pSH235. pbpB3 was amplified using primers SHW159/160 and cloned by PstI/BamHI digestion into pKT25, resulting in pSH237. Finally, pSH484 was obtained by removing the N-terminal domain from gpsB present on plasmid pSH226 in a PCR with the primer pair SHW752/SHW753.
# Plasmids encoding the respective genes fused to the N- or C-termini of the T18- or the T25-fragment of the Bordetella pertussis adenylate cyclase were co-transformed into E. coli BTH101. Transformants were selected on LB agar plates containing ampicillin (100 µg^−1mL^−1), kanamycin (50 µg^−1mL^−1), X-Gal (40 µg^−1mL^−1) and IPTG (0.1 mM) and photographs were taken after 24 and 48h growth at 30 °C. The BACTH experiments in Fig. 2b and Supplementary Figure 3C, D were repeated at least twice.
# BsGpsB1-68Tyr25Phe = target: T2, BsGpsB1-68Tyr25Phe (Bacillus subtilis, UniProt P0CI74, Y25F); assay: Fluorescence polarisation binding to BsGpsB1-68Tyr25Phe; conditions: FP, BsGpsB Tyr25Phe relative to wild-type BsGpsB1-68
# T2 construct: correspond to BsGpsB1-68^Asp31Ala and BsGpsB1-68^Tyr25Phe mutants, respectively; His6 (N, cleaved yes); made in house; host or cells: E. coli BL21(DE3)
# Description: as §1
# BsGpsB1-68Asp31Ala = target: T3, BsGpsB1-68Asp31Ala (Bacillus subtilis, UniProt P0CI74, D31A); assay: Fluorescence polarisation binding to BsGpsB1-68Asp31Ala; conditions: FP, BsGpsB Asp31Ala relative to wild-type BsGpsB1-68
# T3 construct: Glu17Ala, Asp31Ala and Asp35Ala mutations were introduced to the BsGpsB1-68 expression construct plasmid; His6 (N, cleaved yes); made in house; host or cells: E. coli BL21(DE3)
# Description: as §1
# BsGpsB_(1-68) = target: T4, BsGpsB_(1-68) (B. subtilis, UniProt P0CI74 1-68); assay: fluorescence polarisation; GpsB protein titrated into fluorescently labelled peptide; 10 mM Tris.HCl pH 8.0, 250 mM NaCl, 0.1% reduced Triton X-100; fit to a 1:1 interaction model; conditions: both partners purified
# T4 construct: GpsB, Bacillus subtilis, residues 1-68; also called N-terminal domain of BsGpsB; source: E. coli, purified (Ni-NTA, thrombin, size exclusion)
# T4 sequence (looked up): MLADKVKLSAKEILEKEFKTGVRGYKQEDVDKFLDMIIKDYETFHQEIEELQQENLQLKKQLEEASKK
# full-length BsPBP1 = assay: SPR binding to immobilised full-length BsPBP1; design: species or system Bacillus subtilis; conditions: SPR, PBP1-coated chip; full-length GpsB data fit 1:1 only over limited concentration range (avidity), BsGpsB1-68 supports 1:1; peer review file; read-out: affinity / Kd by SPR
# Description: BsPBP1 and BsPBP1_17-914 were immobilised on the surface of a CM5 chip (GE Healthcare). For the BsPBP1/YrrSΔ13-16 titration 800 RUs of BsPBP1 were immobilised on the chip surface; for the BsPBP1/BsGpsB titration 1200 RUs of BsPBP1 were immobilised. YrrSΔ13-16, which lacks residues 13–16 in the cytoplasmic domain, was used in these experiments to minimise non-specific interactions with the chip matrix; binding of YrrSΔ13-16 to the reference surface was negligible and the deletion of residues 13–16 leaves the GpsB-binding motif intact. The YrrSΔ13-16 titration was carried out in single-cycle mode, without regenerating the surface between successive injections of protein, because harsh reagents were necessary for full surface regeneration.
# T3 sequence (P0CI74 1-68 D31A): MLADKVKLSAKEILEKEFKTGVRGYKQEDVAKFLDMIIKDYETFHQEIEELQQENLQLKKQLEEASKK
# T1 sequence (P0CI74 1-68 K32E): as the sequence (P0CI74 1-68 D31A) above, with A31D, K32E counted along it
# T2 sequence (P0CI74 1-68 Y25F): as the sequence (P0CI74 1-68 D31A) above, with Y25F, A31D counted along it
molecule,measurement,setting,value
LmGpsB1-73 (from UniProt Q8Y614 1-73) (domain or fragment),Kd,[1],200 µM
CSCC[C@H](NC(=O)[C@H](CO)NC(=O)CN)C(=O)N[C@@H](C)C(=O)N[C@@H](CC(=O)O)C(=O)N[C@@H](CCCCN)C(=O)N1CCC[C@H]1C(=O)N[C@@H](CCC(N)=O)C(=O)N[C@H](C(=O)N[C@@H](CCCNC(=N)N)C(=O)N[C@@H](CO)C(=O)N[C@@H](CCC(N)=O)C(=O)N[C@@H](Cc1ccc(O)cc1)C(=O)N[C@@H](C)C(=O)N[C@@H](CC(N)=O)C(=O)N[C@@H](CCCCN)C(=O)N[C@@H](CCC(N)=O)C(=O)N[C@@H](CO)C(=O)NCC(=O)NCC(=O)N[C@@H](CSC1CC(=O)N(c2ccc3c(c2)C(=O)OC32c3ccc(O)cc3Oc3cc(O)ccc32)C1=O)C(=O)N[C@@H](CCCCN)C(=O)O)[C@@H](C)O (stereo partly drawn) [Fluorescein-LmPBPA11-20 Arg12Ala] (H-GSMADKPQTRSQYANKQSGGC(Fluorescein(5-Mal))K-OH; N-terminus and C-terminus assumed),reduction in affinity for BsGpsB1-68Lys32Glu,BsGpsB1-68Lys32Glu,~ 4 fold
same,BACTH interaction with LmGpsB,LmGpsB,significant negative impact
CSCC[C@H](NC(=O)[C@H](CO)NC(=O)CN)C(=O)NCC(=O)N[C@@H](CC(N)=O)C(=O)N[C@@H](CC(N)=O)C(=O)N[C@@H](CCC(N)=O)C(=O)N[C@@H](CO)C(=O)N[C@@H](CCCNC(=N)N)C(=O)N[C@@H](Cc1ccc(O)cc1)C(=O)N[C@@H](CCC(=O)O)C(=O)N[C@@H](CC(N)=O)C(=O)N[C@@H](CCCNC(=N)N)C(=O)N[C@@H](CC(=O)O)C(=O)N[C@@H](CCCCN)C(=O)N[C@@H](CCCNC(=N)N)C(=O)N[C@@H](CCCNC(=N)N)C(=O)N[C@@H](CCCCN)C(=O)N[C@@H](C)C(=O)N[C@@H](CC(N)=O)C(=O)N[C@@H](CSC1CC(=O)N(c2ccc3c(c2)C(=O)OC32c3ccc(O)cc3Oc3cc(O)ccc32)C1=O)C(=O)NCC(=O)O (stereo partly drawn) [Fluoroescein-BsYrrS1-18] (H-GSMGNNQSRYENRDKRRKANC(Fluorescein(5-Mal))G-OH; N-terminus and C-terminus assumed),reduction in affinity on GpsB mutation,BsGpsB1-68Tyr25Phe,7 fold
same,reduction in affinity on GpsB mutation,BsGpsB1-68Asp31Ala,7 fold
CCCC[C@H](NC(=O)c1ccc2c(c1)C(=O)OC21c2ccc(O)cc2Oc2cc(O)ccc21)C(=O)N[C@H](C(=O)N[C@@H](CC(N)=O)C(=O)N[C@@H](CCCC)C(=O)N[C@@H](CO)C(=O)N[C@@H](CCCNC(=N)N)C(=O)N[C@H](C(=O)N[C@@H](CCC(=O)O)C(=O)N[C@@H](CCCNC(=N)N)C(=O)N[C@@H](CCCNC(=N)N)C(=O)N[C@@H](CCCCN)C(=O)N[C@@H](C)C(=O)N[C@@H](CCC(N)=O)C(=O)N[C@@H](CC(N)=O)C(=O)N[C@@H](CC(C)C)C(=O)N[C@@H](Cc1ccc(O)cc1)C(=O)N[C@@H](CCC(=O)O)C(=O)N[C@@H](CC(=O)O)C(=O)N[C@@H](CCC(N)=O)C(=O)N[C@@H](CC(N)=O)C(=O)N[C@@H](C)C(=O)O)C(C)C)[C@@H](C)O [Fluoroescein-BsYpbE1-21] (5FAM-[Nle]TN[Nle]SRVERRKAQNLYEDQNA-OH; N-terminus and C-terminus assumed),reduction in affinity on GpsB mutation,BsGpsB1-68Tyr25Phe,~ 40 fold
same,reduction in affinity on GpsB mutation,BsGpsB1-68Asp31Ala,~ 40 fold
CSCC[C@H](NC(=O)[C@H](CO)NC(=O)CN)C(=O)N[C@@H](C)C(=O)N[C@@H](CC(=O)O)C(=O)N[C@@H](CCCCN)C(=O)N1CCC[C@H]1C(=O)N[C@@H](CCC(N)=O)C(=O)N[C@H](C(=O)N[C@@H](C)C(=O)N[C@@H](CO)C(=O)N[C@@H](CCC(N)=O)C(=O)N[C@@H](Cc1ccc(O)cc1)C(=O)N[C@@H](CCCNC(=N)N)C(=O)N[C@@H](CC(N)=O)C(=O)N[C@@H](CCCCN)C(=O)N[C@@H](CCC(N)=O)C(=O)N[C@@H](CO)C(=O)NCC(=O)NCC(=O)N[C@@H](CSC1CC(=O)N(c2ccc3c(c2)C(=O)OC32c3ccc(O)cc3Oc3cc(O)ccc32)C1=O)C(=O)N[C@@H](CCCCN)C(=O)O)[C@@H](C)O (stereo partly drawn) [Fluorescein-LmPBPA11-20 Arg8Ala] (H-GSMADKPQTASQYRNKQSGGC(Fluorescein(5-Mal))K-OH; N-terminus and C-terminus assumed),reduction in affinity for BsGpsB1-68Lys32Glu,BsGpsB1-68Lys32Glu,> 15 fold
same,BACTH interaction with LmGpsB,LmGpsB,significant negative impact
"MSDQFNSREARRKANC(TAMRA‑maleimide)KSSPSPKKGKKAKKGG (peptide, UniProt P39793 1-32, looked up, PBP1, Bacillus subtilis, residues 1-32; source: E. coli, His-tagged MBP fusion purified (Ni-NTA), labelled, TEV-cleaved, ultrafiltration) [BsPBP1_(1-32)^Arg28Ala, TAMRA-labelled at position 16]",binding result,BsGpsB_(1-68),binds
"MSNNQSRYENRDKRRKAN (peptide, UniProt O32031 1-18, looked up, also: fluorescein label, position not given here, YrrS, Bacillus subtilis, residues 1-18; also called entire cytoplasmic mini-domain of BsYrrS) [BsYrrS_(1-18), fluorescein-labelled]",Kd,BsGpsB_(1-68),430 µM
"BsGpsB1-68: N-terminal domain of B. subtilis GpsB (protein, left off: His6, N-terminal, cleaved, N-terminal domain of B. subtilis GpsB) MLADKVKLSAKEILEKEFKTGVRGYKQEDVDKFLDMIIKDYETFHQEIEELQQENLQLKKQLEEASKK",Kd,full-length BsPBP1,40 µM
